Reference: ChEMBL document CHEMBL5303573, “Mapping human microbiome drug metabolism by gut bacteria and their genes” (Nature, 2019)

Test: The drug is tested on Bifidobacterium longum subsp. Infantis strain: CCUG52486 for biotransformation. The drug concentrations were measured before and after a 12-h incubation by liquid-chromatography-coupled mass spectrometry (LC–MS)
Settings: 2 µM

SMILES	Bacterial Biotransformation
CC(=O)OCC(CCn1cnc2cnc(N)nc21)COC(C)=O [FAMCICLOVIR]	Compound metabolized
O=C(O)CCc1nc(-c2ccccc2)c(-c2ccccc2)o1 [OXAPROZIN]	Compound NOT metabolized
COCCCC/C(=N\OCCN)c1ccc(C(F)(F)F)cc1.O=C(O)/C=C\C(=O)O [FLUVOXAMINE MALEATE]	Compound NOT metabolized

Test: The drug is tested on Bifidobacterium ruminantium strain: fecal isolate for biotransformation. The drug concentrations were measured before and after a 12-h incubation by liquid-chromatography-coupled mass spectrometry (LC–MS)
Settings: 2 µM

SMILES	Bacterial Biotransformation
O=C(O)CCc1nc(-c2ccccc2)c(-c2ccccc2)o1 [OXAPROZIN]	Compound metabolized
COCCCC/C(=N\OCCN)c1ccc(C(F)(F)F)cc1.O=C(O)/C=C\C(=O)O [FLUVOXAMINE MALEATE]	Compound metabolized

Test: The drug is tested on Collinsella aerofaciens strain: ATCC25986 for biotransformation. The drug concentrations were measured before and after a 12-h incubation by liquid-chromatography-coupled mass spectrometry (LC–MS)
Settings: 2 µM

SMILES	Bacterial Biotransformation
CC(=O)OCC(CCn1cnc2cnc(N)nc21)COC(C)=O [FAMCICLOVIR]	Compound NOT metabolized
O=C(O)CCc1nc(-c2ccccc2)c(-c2ccccc2)o1 [OXAPROZIN]	Compound NOT metabolized
COCCCC/C(=N\OCCN)c1ccc(C(F)(F)F)cc1.O=C(O)/C=C\C(=O)O [FLUVOXAMINE MALEATE]	Compound NOT metabolized

Test: The drug is tested on Bacteroides dorei strain: DSM17855 for biotransformation. The drug concentrations were measured before and after a 12-h incubation by liquid-chromatography-coupled mass spectrometry (LC–MS)
Settings: phocaeicola dorei, 2 µM

SMILES	Bacterial Biotransformation
CC(=O)OCC(CCn1cnc2cnc(N)nc21)COC(C)=O [FAMCICLOVIR]	Compound metabolized
O=C(O)CCc1nc(-c2ccccc2)c(-c2ccccc2)o1 [OXAPROZIN]	Compound metabolized
COCCCC/C(=N\OCCN)c1ccc(C(F)(F)F)cc1.O=C(O)/C=C\C(=O)O [FLUVOXAMINE MALEATE]	Compound NOT metabolized

Test: The drug is tested on Bacteroides finegoldii strain: DSM17565 for biotransformation. The drug concentrations were measured before and after a 12-h incubation by liquid-chromatography-coupled mass spectrometry (LC–MS)
Settings: 2 µM

SMILES	Bacterial Biotransformation
CC(=O)OCC(CCn1cnc2cnc(N)nc21)COC(C)=O [FAMCICLOVIR]	Compound metabolized
O=C(O)CCc1nc(-c2ccccc2)c(-c2ccccc2)o1 [OXAPROZIN]	Compound metabolized
COCCCC/C(=N\OCCN)c1ccc(C(F)(F)F)cc1.O=C(O)/C=C\C(=O)O [FLUVOXAMINE MALEATE]	Compound NOT metabolized

Test: The drug is tested on Bacteroides fragilis strain: HMW615 for biotransformation. The drug concentrations were measured before and after a 12-h incubation by liquid-chromatography-coupled mass spectrometry (LC–MS)
Settings: 2 µM

SMILES	Bacterial Biotransformation
CC(=O)OCC(CCn1cnc2cnc(N)nc21)COC(C)=O [FAMCICLOVIR]	Compound metabolized
O=C(O)CCc1nc(-c2ccccc2)c(-c2ccccc2)o1 [OXAPROZIN]	Compound metabolized
COCCCC/C(=N\OCCN)c1ccc(C(F)(F)F)cc1.O=C(O)/C=C\C(=O)O [FLUVOXAMINE MALEATE]	Compound NOT metabolized

Test: The drug is tested on Bacteroides sp. WH2 strain: WH2 for biotransformation. The drug concentrations were measured before and after a 12-h incubation by liquid-chromatography-coupled mass spectrometry (LC–MS)
Settings: bacteroides sp. wh2, 12 h, 2 µM

SMILES	Bacterial Biotransformation
CC(=O)OCC(CCn1cnc2cnc(N)nc21)COC(C)=O [FAMCICLOVIR]	Compound metabolized
O=C(O)CCc1nc(-c2ccccc2)c(-c2ccccc2)o1 [OXAPROZIN]	Compound metabolized
COCCCC/C(=N\OCCN)c1ccc(C(F)(F)F)cc1.O=C(O)/C=C\C(=O)O [FLUVOXAMINE MALEATE]	Compound NOT metabolized

Test: The drug is tested on Bacteroides xylanisolvens strain: DSM18836 for biotransformation. The drug concentrations were measured before and after a 12-h incubation by liquid-chromatography-coupled mass spectrometry (LC–MS)
Settings: 2 µM

SMILES	Bacterial Biotransformation
CC(=O)OCC(CCn1cnc2cnc(N)nc21)COC(C)=O [FAMCICLOVIR]	Compound metabolized
O=C(O)CCc1nc(-c2ccccc2)c(-c2ccccc2)o1 [OXAPROZIN]	Compound metabolized
COCCCC/C(=N\OCCN)c1ccc(C(F)(F)F)cc1.O=C(O)/C=C\C(=O)O [FLUVOXAMINE MALEATE]	Compound NOT metabolized

Test: The drug is tested on Anaerotruncus colihominis strain: DSM17241 for biotransformation. The drug concentrations were measured before and after a 12-h incubation by liquid-chromatography-coupled mass spectrometry (LC–MS)
Settings: 2 µM

SMILES	Bacterial Biotransformation
CC(=O)OCC(CCn1cnc2cnc(N)nc21)COC(C)=O [FAMCICLOVIR]	Compound NOT metabolized
O=C(O)CCc1nc(-c2ccccc2)c(-c2ccccc2)o1 [OXAPROZIN]	Compound NOT metabolized
COCCCC/C(=N\OCCN)c1ccc(C(F)(F)F)cc1.O=C(O)/C=C\C(=O)O [FLUVOXAMINE MALEATE]	Compound NOT metabolized

Test: The drug is tested on Eubacterium hallii strain: DSM3353 for biotransformation. The drug concentrations were measured before and after a 12-h incubation by liquid-chromatography-coupled mass spectrometry (LC–MS)
Settings: anaerobutyricum hallii, 2 µM

SMILES	Bacterial Biotransformation
CC(=O)OCC(CCn1cnc2cnc(N)nc21)COC(C)=O [FAMCICLOVIR]	Compound NOT metabolized
O=C(O)CCc1nc(-c2ccccc2)c(-c2ccccc2)o1 [OXAPROZIN]	Compound NOT metabolized
COCCCC/C(=N\OCCN)c1ccc(C(F)(F)F)cc1.O=C(O)/C=C\C(=O)O [FLUVOXAMINE MALEATE]	Compound NOT metabolized

Test: The drug is tested on Eubacterium ventriosum strain: ATCC27560 for biotransformation. The drug concentrations were measured before and after a 12-h incubation by liquid-chromatography-coupled mass spectrometry (LC–MS)
Format: ADME
Parameters: dose 2 uM, timepoint 0 vs 12 hours
Settings: 2 µM

SMILES	Bacterial Biotransformation
CC(=O)OCC(CCn1cnc2cnc(N)nc21)COC(C)=O [FAMCICLOVIR]	Compound NOT metabolized
O=C(O)CCc1nc(-c2ccccc2)c(-c2ccccc2)o1 [OXAPROZIN]	Compound NOT metabolized
COCCCC/C(=N\OCCN)c1ccc(C(F)(F)F)cc1.O=C(O)/C=C\C(=O)O [FLUVOXAMINE MALEATE]	Compound NOT metabolized

Test: The drug is tested on Ruminococcus gnavus strain: ATCC29149 for biotransformation. The drug concentrations were measured before and after a 12-h incubation by liquid-chromatography-coupled mass spectrometry (LC–MS)
Settings: mediterraneibacter gnavus, 2 µM

SMILES	Bacterial Biotransformation
CC(=O)OCC(CCn1cnc2cnc(N)nc21)COC(C)=O [FAMCICLOVIR]	Compound NOT metabolized
O=C(O)CCc1nc(-c2ccccc2)c(-c2ccccc2)o1 [OXAPROZIN]	Compound NOT metabolized
COCCCC/C(=N\OCCN)c1ccc(C(F)(F)F)cc1.O=C(O)/C=C\C(=O)O [FLUVOXAMINE MALEATE]	Compound NOT metabolized

Test: The drug is tested on Providencia stuartii strain: ATCC25827 for biotransformation. The drug concentrations were measured before and after a 12-h incubation by liquid-chromatography-coupled mass spectrometry (LC–MS)
Settings: 2 µM

SMILES	Bacterial Biotransformation
CC(=O)OCC(CCn1cnc2cnc(N)nc21)COC(C)=O [FAMCICLOVIR]	Compound NOT metabolized
O=C(O)CCc1nc(-c2ccccc2)c(-c2ccccc2)o1 [OXAPROZIN]	Compound NOT metabolized
COCCCC/C(=N\OCCN)c1ccc(C(F)(F)F)cc1.O=C(O)/C=C\C(=O)O [FLUVOXAMINE MALEATE]	Compound NOT metabolized

Settings: bacteroides fragilis, 12 h, 2 µM
Description: The drug is tested on Bacteroides fragilis strain: NCTC 9343 for biotransformation. The drug concentrations were measured before and after a 12-h incubation by liquid-chromatography-coupled mass spectrometry (LC–MS)

SMILES	Bacterial Biotransformation
CC(=O)OCC(CCn1cnc2cnc(N)nc21)COC(C)=O [FAMCICLOVIR]	Compound metabolized
O=C(O)CCc1nc(-c2ccccc2)c(-c2ccccc2)o1 [OXAPROZIN]	Compound metabolized

Settings: bacteroides intestinalis, 12 h, 2 µM
Description: The drug is tested on Bacteroides intestinalis strain: DSM17393 for biotransformation. The drug concentrations were measured before and after a 12-h incubation by liquid-chromatography-coupled mass spectrometry (LC–MS)

SMILES	Bacterial Biotransformation
CC(=O)OCC(CCn1cnc2cnc(N)nc21)COC(C)=O [FAMCICLOVIR]	Compound metabolized
O=C(O)CCc1nc(-c2ccccc2)c(-c2ccccc2)o1 [OXAPROZIN]	Compound metabolized
COCCCC/C(=N\OCCN)c1ccc(C(F)(F)F)cc1.O=C(O)/C=C\C(=O)O [FLUVOXAMINE MALEATE]	Compound NOT metabolized

Settings: bacteroides thetaiotaomicron, 12 h, 2 µM
Description: The drug is tested on Bacteroides thetaiotaomicron strain: 3731 for biotransformation. The drug concentrations were measured before and after a 12-h incubation by liquid-chromatography-coupled mass spectrometry (LC–MS)

SMILES	Bacterial Biotransformation
CC(=O)OCC(CCn1cnc2cnc(N)nc21)COC(C)=O [FAMCICLOVIR]	Compound metabolized
O=C(O)CCc1nc(-c2ccccc2)c(-c2ccccc2)o1 [OXAPROZIN]	Compound metabolized
COCCCC/C(=N\OCCN)c1ccc(C(F)(F)F)cc1.O=C(O)/C=C\C(=O)O [FLUVOXAMINE MALEATE]	Compound metabolized

Settings: limosilactobacillus reuteri cf48-3a, 12 h, 2 µM
Description: The drug is tested on Lactobacillus reuteri CF48-3A strain: BEI HM-102 for biotransformation. The drug concentrations were measured before and after a 12-h incubation by liquid-chromatography-coupled mass spectrometry (LC–MS)

SMILES	Bacterial Biotransformation
CC(=O)OCC(CCn1cnc2cnc(N)nc21)COC(C)=O [FAMCICLOVIR]	Compound NOT metabolized
O=C(O)CCc1nc(-c2ccccc2)c(-c2ccccc2)o1 [OXAPROZIN]	Compound NOT metabolized
COCCCC/C(=N\OCCN)c1ccc(C(F)(F)F)cc1.O=C(O)/C=C\C(=O)O [FLUVOXAMINE MALEATE]	Compound NOT metabolized

Settings: roseburia intestinalis, 12 h, 2 µM
Description: The drug is tested on Roseburia intestinalis strain: L1-82 for biotransformation. The drug concentrations were measured before and after a 12-h incubation by liquid-chromatography-coupled mass spectrometry (LC–MS)

SMILES	Bacterial Biotransformation
CC(=O)OCC(CCn1cnc2cnc(N)nc21)COC(C)=O [FAMCICLOVIR]	Compound NOT metabolized
COCCCC/C(=N\OCCN)c1ccc(C(F)(F)F)cc1.O=C(O)/C=C\C(=O)O [FLUVOXAMINE MALEATE]	Compound NOT metabolized

Settings: akkermansia muciniphila, 12 h, 2 µM
Description: The drug is tested on Akkermansia muciniphila strain: ATCC BAA-835 for biotransformation. The drug concentrations were measured before and after a 12-h incubation by liquid-chromatography-coupled mass spectrometry (LC–MS)

SMILES	Bacterial Biotransformation
CC(=O)OCC(CCn1cnc2cnc(N)nc21)COC(C)=O [FAMCICLOVIR]	Compound NOT metabolized
